The test system of assay [1] is HIV coding for mutant reverse transcriptase Y188L. Briefly: ELISA (p24) assay of HIV replication in C8166 cell culture, Y188L virus. Format: cell-based, HIV-1. As to conditions: Human immunodeficiency virus 1, C8166, 72 h, read-out: EC50 Y188L. How it is done: (§1) Compounds of the invention were tested for their ability to inhibit HIV replication in cell culture in a 96-well plate assay. Complete RPMI 1640, consisting of RPMI 1640+10% fetal bovine serum, 10 μg/ml gentamycin and 10 μM β-mercaptoethanol was used for dilution of the compound as well as cell growth medium. The T lymphocyte cell line C8166 was infected at a multiplicity of infection of 0.001 with viruses coding for wild-type and mutant reverse transcriptase. Cells were then incubated for three days in the presence of serial dilutions of the compounds of the invention. The supernatant was pooled from eight replica wells and the concentration of extracellular p24 was determined using a commercially available HIV-1 p24 antigen assay kit (Beckman-Coulter®). The level of inhibition (% inhibition) was calculated with the following equation: [formula]
In general terms: In an ELISA, binding on a coated surface is turned into a signal by an enzyme label.

The subject of assay [2] is HIV coding for mutant reverse transcriptase K103N/L100I. Briefly: ELISA (p24) assay of HIV replication in C8166 cell culture, K103N/L100I virus. As to conditions: Human immunodeficiency virus 1, C8166, 72 h, read-out: EC50 K103N/L100I. Format: cell-based, HIV-1. On the procedure: as §1

In the case of `CCN1c2ncc(CCOc3cc[n+]([O-])c4ccccc34)cc2C(=O)N(C)c2ccc(F)nc21` [compound 11, 5,11-Dihydro-11-ethyl-2-fluoro-5-methyl-8-{2-{(1-oxido-4-quinolinyl)oxy}-ethyl}-6H-dipyrido[3,2-b:2′,3′-e][1,4]diazepin-6-one], the EC50 was found to be 0.052 µM in assay [1] and 0.0032 µM in assay [2].
With `CCN1c2ncc(CCOc3cc[n+]([O-])c4ccccc34)cc2C(=O)N(C)c2cccnc21` [compound 21, 5,11-Dihydro-11-ethyl-5-methyl-8-{2-{(1-oxido-4-quinolinyl)oxy}ethyl}-6H-dipyrido[3,2-b:2′,3′-e][1,4]diazepin-6-one], the EC50 in assay [1] was 0.067 µM; in assay [2], 0.0059 µM.
For `CCN1c2ncc(CCOc3cc[n+]([O-])c4ccccc34)cc2C(=O)N(C)c2ccc(Cl)nc21` [compound 17, 2-Chloro-5,11-dihydro-11-ethyl-5-methyl-8-{2-{(1-oxido-4-quinolinyl)oxy}-ethyl}-6H-dipyrido[3,2-b:2′,3′-e][1,4]diazepin-6-one], the results for the EC50 in assay [1] and in assay [2] were 0.058 µM and 0.0012 µM, respectively.

Source of the values: patent publication US20020028807A1, “Non-nucleoside reverse transcriptase inhibitors” (priority 2000, published 2002).
